The values below come from patent publication US20160313301A1, “METHOD FOR PREDICTING ANTITUMOR EFFICACY OF HSP90 INHIBITOR IN CANCER TREATMENT” (NIPPON KAYAKU KABUSHIKI KAISHA, priority 2013, published 2016).

Format in all cases: in vivo
Assay [1] relates to human breast cancer cells JIMT-1. Kind of assay: Anti-tumor test in mice transplanted subcutaneously with tumor (JIMT-1). As to conditions: JIMT-1 s.c. in mice; 125 mg/kg tail vein three times at 7 day intervals. As to the method:
(§1) Human ovarian cancer cell lines OC-10-JCK, OC-11-JCK, and TOGY-18, and a human breast cancer cell line MC-19-JCK were obtained from Central Institute for Experimental Animals. Cryopreserved tumor pieces were thawed, and then OC-10-JCK, OC-11-JCK, and MC-19-JCK were transplanted subcutaneously to SCID mice, while TOGY-18 was transplanted subcutaneously to nude mice. After the tumors were grown, the tumors were removed and cut into tumor pieces. The tumor pieces were transplanted subcutaneously to SCID mice or nude mice with trocars. The tumors were maintained by repeated transplantation in the same manner as described above to prepare tumors to be transplanted. Human ovarian cancer cell lines ES-2, SK-OV-3, OV-90, and TOV-21G, and a human lung cancer cell line NCI-H1975 were obtained from American Type Culture Collection (ATCC). The SK-OV-3 and NCI-H1975 cell lines were grown in recommended culture media, of which about 1×10^7 cells were suspended into HBSS and then injected subcutaneously to SCID mice. After the cells formed tumors, the tumors were removed and cut into tumor pieces. The tumor pieces were transplanted subcutaneously to SCID mice with trocars. The tumors were maintained by repeated transplantation in the same manner as described above to prepare tumors to be transplanted. […]

Assay [2] concerns human ovarian cancer cells TOGY-18. Kind of assay: Anti-tumor test in mice transplanted subcutaneously with tumor (TOGY-18). As to conditions: TOGY-18 s.c. in mice; 125 mg/kg tail vein three times at 7 day intervals. As to the method:
as §1

Assay [3] has as its system human ovarian cancer cells OC-11-JCK/PTX. Briefly: Anti-tumor test in mice transplanted subcutaneously with tumor (OC-11-JCK/PTX). As to conditions: OC-11-JCK/PTX s.c. in mice; 125 mg/kg tail vein three times at 7 day intervals. As to the method:
Human ovarian cancer cell lines OC-10-JCK, OC-11-JCK, and TOGY-18, and a human breast cancer cell line MC-19-JCK were obtained from Central Institute for Experimental Animals. Cryopreserved tumor pieces were thawed, and then OC-10-JCK, OC-11-JCK, and MC-19-JCK were transplanted subcutaneously to SCID mice, while TOGY-18 was transplanted subcutaneously to nude mice. After the tumors were grown, the tumors were removed and cut into tumor pieces. The tumor pieces were transplanted subcutaneously to SCID mice or nude mice with trocars. The tumors were maintained by repeated transplantation in the same manner as described above to prepare tumors to be transplanted. Human ovarian cancer cell lines ES-2, SK-OV-3, OV-90, and TOV-21G, and a human lung cancer cell line NCI-H1975 were obtained from American Type Culture Collection (ATCC). The SK-OV-3 and NCI-H1975 cell lines were grown in recommended culture media, of which about 1×10^7 cells were suspended into HBSS and then injected subcutaneously to SCID mice. After the cells formed tumors, the tumors were removed and cut into tumor pieces. The tumor pieces were transplanted subcutaneously to SCID mice with trocars. The tumors were maintained by repeated transplantation in the same manner as described above to prepare tumors to be transplanted. The OV-90 cell line was grown in a recommended culture medium, of which about 1×10^6 cells were suspended into HBSS and then injected subcutaneously to SCID mice. After the cells formed a tumor, the tumor was subjected to an anti-tumor test. The TOV-21G cell line was grown in a recommended culture medium, of which about 1×10^7 cells were suspended into HBSS and then injected subcutaneously to SCID mice. After the cells formed a tumor, the tumor was subjected to the anti-tumor test. The ES-2 cell line was grown in a recommended culture medium, suspended into HBSS, and then injected subcutaneously to nude mice. After the cells formed a tumor, the tumor was removed and cut into tumor pieces. The tumor pieces were transplanted subcutaneously to nude mice with a trocar. […]

Assay [4] concerns human lung cancer cells NCI-H1975. Kind of assay: Anti-tumor test in mice transplanted subcutaneously with tumor (NCI-H1975). As to conditions: NCI-H1975 s.c. in mice; 150 mg/kg tail vein three times at 7 day intervals. The protocol:
as §1

For assay [5], the system named is human breast cancer cells MC-19-JCK. Kind of assay: Anti-tumor test in mice transplanted subcutaneously with tumor (MC-19-JCK). Particulars: MC-19-JCK s.c. in mice; administered once at 125 mg/kg. The protocol:
as §1

On to `CC(C)c1cc(-c2n[nH]c(=O)n2-c2ccc3c(ccn3C)c2)c(O)cc1O` [Ganetespib, reference compound], for which the “T/C % (lowest value from the beginning to the 21st day of administration)” value was 56.6% in assay [1]; 67.7% in assay [2]; 84.0% in assay [3]; 44.0% in assay [4]; 19.8% in assay [5].
